Results: the NIST ThermoML archive (doi:10.1016/j.jct.2017.08.032)
± gives the expanded uncertainty stated by the source.

CCCCn1cc[n+](C)c1.F[P-](F)(F)(F)(F)F [1-butyl-3-methylimidazolium hexafluorophosphate]
101.33 kPa, Liquid
Settings	mass density, Vibrating tube method [kg/m3]	viscosity, Falling or rolling sphere viscometry [mPa·s]
283.15 K	1380 ± 10	779.5 ± 73
293.15 K	1372 ± 10	345.1 ± 25
303.15 K	1363 ± 10	185.1 ± 11
313.15 K	1354 ± 10	109.6 ± 5.2
323.15 K	1346 ± 10	69.7 ± 2.9
333.15 K	1339 ± 10	46.59 ± 1.9
343.15 K	1332 ± 10	32.67 ± 1.3
353.15 K	1323 ± 10	23.85 ± 0.98
363.15 K	1314 ± 10	18.03 ± 0.74

CCCCn1cc[n+](C)c1.O=S(=O)([O-])C(F)(F)F [1-butyl-3-methylimidazolium trifluoromethanesulfonate]
101.33 kPa, Liquid
Settings	mass density, Vibrating tube method [kg/m3]	viscosity, Falling or rolling sphere viscometry [mPa·s]
283.15 K	1309 ± 10	183.3 ± 10
293.15 K	1301 ± 10	106.5 ± 5
303.15 K	1293 ± 10	66.58 ± 2.8
313.15 K	1285 ± 10	44.45 ± 1.8
323.15 K	1277 ± 10	31.17 ± 1.3
333.15 K	1270 ± 10	22.81 ± 0.94
343.15 K	1262 ± 10	17.24 ± 0.71
353.15 K	1254 ± 10	13.48 ± 0.55
363.15 K	1247 ± 10	10.73 ± 0.44

CCC[N+]1(C)CCCCC1.O=S(=O)([N-]S(=O)(=O)C(F)(F)F)C(F)(F)F
101.33 kPa
Settings	mass density [kg/m3]	viscosity [mPa·s]
283.15 K, Metastable liquid, Falling or rolling sphere viscometry	–	350.3 ± 25
283.15 K, Metastable liquid, Vibrating tube method	1422 ± 10	–
293.15 K, Falling or rolling sphere viscometry, Liquid	–	174.4 ± 9.8
293.15 K, Vibrating tube method, Liquid	1413 ± 10	–
303.15 K, Falling or rolling sphere viscometry, Liquid	–	99.68 ± 4.6
303.15 K, Vibrating tube method, Liquid	1404 ± 10	–
313.15 K, Falling or rolling sphere viscometry, Liquid	–	62.11 ± 2.6
313.15 K, Vibrating tube method, Liquid	1395 ± 10	–
323.15 K, Falling or rolling sphere viscometry, Liquid	–	40.78 ± 1.7
323.15 K, Vibrating tube method, Liquid	1386 ± 10	–
333.15 K, Falling or rolling sphere viscometry, Liquid	–	29.14 ± 1.2
333.15 K, Vibrating tube method, Liquid	1379 ± 10	–
343.15 K, Falling or rolling sphere viscometry, Liquid	–	21.36 ± 0.88
343.15 K, Vibrating tube method, Liquid	1371 ± 10	–
353.15 K, Falling or rolling sphere viscometry, Liquid	–	16.25 ± 0.67
353.15 K, Vibrating tube method, Liquid	1363 ± 10	–
363.15 K, Falling or rolling sphere viscometry, Liquid	–	12.75 ± 0.52
363.15 K, Vibrating tube method, Liquid	1353 ± 10	–

C[N+](C)(C)CCO.O=S(=O)([N-]S(=O)(=O)C(F)(F)F)C(F)(F)F [choline bis(trifluoromethylsulfonyl)imide]
101.33 kPa
Settings	mass density [kg/m3]	viscosity [mPa·s]
293.15 K, Metastable liquid, Falling or rolling sphere viscometry	–	187.9 ± 11
293.15 K, Metastable liquid, Vibrating tube method	1539 ± 10	–
303.15 K, Metastable liquid, Falling or rolling sphere viscometry	–	111.5 ± 5.3
303.15 K, Metastable liquid, Vibrating tube method	1530 ± 10	–
313.15 K, Falling or rolling sphere viscometry, Liquid	–	71.05 ± 3
313.15 K, Vibrating tube method, Liquid	1520 ± 10	–
323.15 K, Falling or rolling sphere viscometry, Liquid	–	47.94 ± 2
323.15 K, Vibrating tube method, Liquid	1511 ± 10	–
333.15 K, Falling or rolling sphere viscometry, Liquid	–	34.09 ± 1.4
333.15 K, Vibrating tube method, Liquid	1504 ± 10	–
343.15 K, Falling or rolling sphere viscometry, Liquid	–	25.6 ± 1.1
343.15 K, Vibrating tube method, Liquid	1495 ± 10	–
353.15 K, Falling or rolling sphere viscometry, Liquid	–	19.61 ± 0.8
353.15 K, Vibrating tube method, Liquid	1486 ± 10	–
363.15 K, Falling or rolling sphere viscometry, Liquid	–	15.43 ± 0.63
363.15 K, Vibrating tube method, Liquid	1476 ± 10	–

CCCCn1cc[n+](C)c1.CCOS(=O)(=O)[O-] [1-butyl-3-methyl-1H-imidazolium ethyl sulfate]
101.33 kPa, Liquid
Settings	mass density, Vibrating tube method [kg/m3]	viscosity, Falling or rolling sphere viscometry [mPa·s]
283.15 K	1193 ± 10	672.1 ± 60
293.15 K	1186 ± 10	334 ± 24
303.15 K	1180 ± 10	181 ± 10
313.15 K	1173 ± 10	110.3 ± 5.2
323.15 K	1166 ± 10	70.37 ± 2.9
333.15 K	1160 ± 10	47.41 ± 1.9
343.15 K	1153 ± 10	33.67 ± 1.4
353.15 K	1146 ± 10	24.88 ± 1
363.15 K	1139 ± 10	19.11 ± 0.78

CCCC[n+]1ccn(C)c1.O=S(=O)([N-]S(=O)(=O)C(F)(F)F)C(F)(F)F
101.33 kPa, Liquid
Settings	mass density, Vibrating tube method [kg/m3]	viscosity, Falling or rolling sphere viscometry [mPa·s]
283.15 K	1448 ± 10	88.06 ± 3.9
293.15 K	1438 ± 10	54.17 ± 2.2
303.15 K	1428 ± 10	35.88 ± 1.5
313.15 K	1418 ± 10	25.32 ± 1
323.15 K	1408 ± 10	18.69 ± 0.77
333.15 K	1399 ± 10	14.34 ± 0.59
343.15 K	1390 ± 10	11.22 ± 0.46
353.15 K	1379 ± 10	8.99 ± 0.37
363.15 K	1370 ± 10	7.38 ± 0.3

CCn1cc[n+](C)c1.O=S(=O)([N-]S(=O)(=O)C(F)(F)F)C(F)(F)F
101.33 kPa, Liquid
Settings	mass density, Vibrating tube method [kg/m3]	viscosity, Falling or rolling sphere viscometry [mPa·s]
283.15 K	1531 ± 10	56.17 ± 2.3
293.15 K	1521 ± 10	37.23 ± 1.5
303.15 K	1510 ± 10	26.55 ± 1.1
313.15 K	1500 ± 10	19.6 ± 0.8
323.15 K	1491 ± 10	15.01 ± 0.62
333.15 K	1483 ± 10	11.84 ± 0.49
343.15 K	1474 ± 10	9.57 ± 0.39
353.15 K	1465 ± 10	7.9 ± 0.32
363.15 K	1455 ± 10	6.65 ± 0.27
